assay: Human HepG2 cell viability assay in 384 well format; format: toxicity, cell-based; design: dose 125 nL, time 70.5 hour; cytotoxicity at 70.5 h: concentration not given beside the values; settings: HepG2 cells, read-out: Inhibition

Row | SMILES | cytotoxicity at 70.5 h
1 | CN1C(=O)CC(C(=O)O)C12CCN(Cc1cc(F)ccc1Cl)CC2 (centres undefined) | -9.93%
2 | CN(Cc1cccc(F)c1)Cc1nc2c(cnn2C)c(=O)[nH]1 | 5.31%
3 | Cn1nnc2c1C(COCc1ccccn1)CN(C(=O)c1ccsc1)C2 (centres undefined) | -6.33%
4 | CCc1ccc(C2COCCN2C(=O)NCc2cccc(C#N)c2)o1 (centres undefined) | -9.17%
5 | Cc1ncncc1C(=O)N1CCOC(C)(C(=O)NC2CCCC2)C1 (centres undefined) | -1.33%
6 | Cc1ccc(C(C(=O)O)N(C)CCCN2CCOCC2)c(C)c1 (centres undefined) | -8.61%
7 | Cc1cccc(OCC(O)CNCc2c(C)nn(C)c2N(C)C)c1 (centres undefined) | -8.26%
8 | CCOCCn1c(=O)[nH]c2cc(C(=O)N(C)Cc3ccno3)ccc21 | -1.24%
9 | CN(C)CCOCC1CN(Cc2ccc(F)cc2)Cc2nnn(C)c21 (centres undefined) | 2.45%
10 | O=C(CNC(=O)N(Cc1ccoc1)C1CCCCC1)N1CCCC1 | -7.2%
11 | CCc1ccccc1CNC(=O)NCc1cnn(C)c1 | -11.8%
12 | O=C(Nc1ccc(CN2CCOCC2)cc1)c1nccn2ccnc12 | 22.2%
13 | CN(Cc1nc(COc2ccccc2)no1)CC1Cc2ccccc2O1 (centres undefined) | -3.44%
14 | O=C(NCC(F)(F)C(F)F)c1ccncc1 | -8.69%
15 | CCS(=O)(=O)N1CCCC2(CCCN2Cc2cccc(F)c2)C1 (centres undefined) | -8.06%
16 | Cc1c(Cl)c(C(=O)N2CC(c3cccnc3)C2)nn1C | -1.27%
17 | O=C(CCC(=O)c1cccs1)NC1(C(=O)NCC2CC2)CCCC1 | -1.16%
18 | NC(=O)COc1ccc(CNCc2cc(F)cc(F)c2)cc1 | -8.73%
19 | O=C(NC[C@H]1COCc2nc3cc(F)ccc3n21)c1cccnc1 | -2.79%
20 | CN(CC1(O)CCCC1)C(=O)c1cccc(Nc2cnccn2)c1 | -19.5%
21 | CC(C)N1CCC2(C=C(C(=O)N(C)C)c3ccccc32)CC1 | -16.2%
22 | CN1C(=O)C2(CCN(C(=O)c3ccccc3)CC2)c2cc(F)ccc21 | -7.93%
23 | NS(=O)(=O)c1ccc(NCc2ccccc2)cc1C(F)(F)F | 4.82%

Row | SMILES | cytotoxicity at 70.5 h
24 | Cc1ccc(CN2CCCC3(CCCN3S(C)(=O)=O)C2)s1 (centres undefined) | -8%
25 | CCN1CCC(CC(=O)NCc2cc(C)nn2C)CC1 | -4.69%
26 | CN(C)c1ccc(C(=O)N2CCCC2c2ccc(Cl)cc2)nn1 (centres undefined) | -11.3%
27 | c1cncc(OCC2CN(Cc3ccco3)Cc3nccn3C2)c1 (centres undefined) | 21.3%
28 | Cc1nc(C)c(CC(=O)Nc2ncc(C)s2)c(=O)[nH]1 | -1.19%
29 | NC(=O)C1=NC2=NS(=O)(=O)c3ccccc3N2N1Cc1ccc(Br)cc1 | -7.39%
30 | CO[C@@H]1CCN(Cc2cccs2)[C@H]1Cc1ccncc1 | -0.408%
31 | Cc1cnn(CC2CCCCN2CCS(C)(=O)=O)c1 (centres undefined) | -1.02%
32 | O=C(NCc1cc[nH]n1)NCC(c1ccc(F)cc1)N1CCOCC1 (centres undefined) | -12.9%
33 | Cn1cc(C(=O)N2CCSc3ccccc32)ccc1=O | 3.72%
34 | Cc1cccc(N(CCC(N)=O)CC(=O)Nc2ccccc2)c1 | 0.933%
35 | Cc1c(NC(=O)CN(C)S(C)(=O)=O)cccc1OC1CCCC1 | -4%
36 | O=C(c1ccccc1)N1CCN(CC(O)c2ccc(F)cc2)CC1 (centres undefined) | -11%
37 | Cc1ccc(C(=O)N2CC(=O)N(Cc3cccs3)CC(O)C2)cc1 (centres undefined) | -0.413%
38 | CCc1nc2n(n1)CC(Nc1nc(C)cc(N(C)C)n1)CC2 (centres undefined) | -6.31%
39 | CN(C1CCCCC1)S(=O)(=O)N1CCN(Cc2ccon2)CC1 | -9.52%
40 | CC(CNCC1(S(C)(=O)=O)CCOCC1)c1ccc(F)cc1 (centres undefined) | 9.05%
41 | CC(C)(C)c1ncc(C(=O)NCCS(N)(=O)=O)s1 | -1.37%
42 | Cc1noc([C@@H]2C[C@H]3OCC[C@H]3N(Cc3cc(C)c(C)o3)C2)n1 | -6.09%
43 | CC(C)c1cc(CN2CCC(N)CC2)on1 | 19.4%
44 | CCOc1ncnc2c1CCN(c1cc(C(F)(F)F)ncn1)CC2 | 3.85%
45 | O=c1c(C(F)(F)F)cccn1Cc1nnc(-c2cccnc2)o1 | -0.729%
46 | CC(C)COc1cccc(-c2nc3c([nH]2)CCNC3)c1 | 3.41%

Row | SMILES | cytotoxicity at 70.5 h
47 | COC(=O)NCC(=O)NCC(C)(C)c1cccc(C(F)(F)F)c1 | -1.23%
48 | NC(=O)C1CCN(C(=O)Cn2nc(-c3ccccc3)oc2=O)C1 (centres undefined) | -5.69%
49 | CC(C)CC(=O)N1CCCC1c1nccnc1Nc1ncccn1 (centres undefined) | 29.4%
50 | Cc1nc(N(C)C)ncc1C(=O)N(Cc1ccncc1)CC1CCCO1 (centres undefined) | -4.9%
51 | COc1ccc(CN(C)C(=O)NC(C)c2nncn2C)cc1F (centres undefined) | -6.21%
52 | Cc1cccc(C2CC(=O)Nc3c2c(=O)[nH]n3C(C)C)c1 (centres undefined) | -11.1%
53 | CN1CCN(Cc2ccccc2Oc2nccc3occc23)CC1 | -1.68%
54 | COCCN1CC(c2nc(CC3CCN(C)CC3)no2)CCC1=O (centres undefined) | -11.5%
55 | c1ccc(COC[C@H]2CC[C@H]3[C@H](CCN3Cc3ccccn3)O2)nc1 | -10.3%
56 | COc1ccc2c(c1)[nH]c1c(N(C)CC3OCCO3)ncnc12 | 7.79%
57 | CCCn1ccnc1SCC(=O)NC(Cc1ccccc1)C(C)=O (centres undefined) | 1.89%
58 | COc1cc(CN(C)C(=O)Nc2cc(C)on2)ccc1SC | -1.35%
59 | CN(C)S(=O)(=O)N1CC[C@H]2OCC[C@@]2(COc2cccnc2)C1 | -12.5%
60 | CN(C)C(=O)C1CN(c2ncccn2)CCN1C (centres undefined) | -1.97%
61 | CC(C)(C)Oc1ccc(CN)c(C(F)(F)F)c1 | 6.84%
62 | CC(C)c1nnc2n1CCN(C(C)c1nnc(-c3cccs3)o1)C2 (centres undefined) | -3.01%
63 | CN1CCC(c2cncc(-c3cccc(Cl)c3)n2)CC1 | -2.71%
64 | CCOc1ncccc1CNC(=O)CN1CCCCCC1=O | 19.7%
65 | CNC(=O)CN1CCOCC12CCN(C(=O)c1ccc(C)cc1)CC2 | -6.86%
66 | O=C(CCCn1cnnn1)N1CCC(c2ccncc2)CC1 | 22.6%
67 | Cc1cnc(NCc2ccncc2)nc1-c1cnn(C)c1 | 12.6%
68 | O=C(O)[C@@H]1CN(C(=O)c2ccc3[nH]nnc3c2)C[C@H]1c1ccccc1 | -4.96%
69 | COCCN(CCOC)c1ncccc1Cl | -6.57%

Row | SMILES | cytotoxicity at 70.5 h
70 | O=C(Nc1nnc(C(F)F)s1)N[C@H](CCO)c1ccccc1 | 0.703%
71 | CC(C(=O)NCC(C)(C)c1ccc(Br)cc1)n1cncn1 (centres undefined) | -12.2%
72 | Cc1nc(C2CCCN(C(=O)c3cc(Cl)c[nH]3)C2)sc1C (centres undefined) | -2.27%
73 | Cc1ccc2cc(C3(O)CCN(C(=O)[C@@H]4CCCCN4)CC3)ccc2n1 | -2.74%
74 | CCN1CCc2c(c(COC)nn2C)C1 | -10.5%
75 | COCc1c(Cl)cccc1NC(=O)NCc1cccc(N(C)C)n1 | 1.02%
76 | CCc1cnc(NCCCOC2CCCC2)nc1 | -16.5%
77 | Cc1nnc2n1CCN(C(=O)C(OC1CCCC1)c1ccccc1)C2 (centres undefined) | -1.74%
78 | CCN1CCN(c2nc(O)cc(Cc3ccccc3F)n2)CC1 | -0.665%
79 | Cc1cc(C2CCC2)nc(N2CCC3(CCCN(C)C3=O)C2)n1 (centres undefined) | -10.6%
80 | CCCS(=O)(=O)N1C[C@H]2C[C@H](C(=O)N3CCOCC3)[C@@H](C1)O2 | -4.21%
81 | CC(C)N(C)C(=O)C1=NOC2(CCN(C(=O)c3ccncc3)C2)C1 (centres undefined) | -8.56%
82 | Cc1nnc(NC(=O)CN2CCCC(Cn3cncn3)C2)s1 (centres undefined) | -1.69%
83 | c1cnn(CC2CN(CCc3ccncc3)CCO2)c1 (centres undefined) | -4.36%
84 | CC(C)(C)CC(=O)N1CCC(c2nn(CCN)c3nccnc23)C1 (centres undefined) | -4.08%
85 | COc1ccc(OC)c(CNc2nnc(C(C)(C)C)o2)c1 | -12.4%
86 | N#Cc1cn[nH]c1NCc1cc(Br)ccc1O | -9.76%
87 | CC(C)n1cnc(-c2nc(C(=O)N3CCN(C)CC3)c3ccccn23)c1 | -2.41%
88 | NC(=O)C1CCN(c2nc3nccc(-c4ccncc4)c3c(=O)[nH]2)CC1 | -1.26%
89 | COc1ccc(CCC(C)Nc2cccc(SC)c2)cc1 (centres undefined) | 23.6%
90 | Cc1ccc(CN2CC[C@H]3[C@H](CC(Cn4cccn4)N3C)C2)s1 (some centres undefined) | 15.9%
91 | O=C1c2ccccc2C(=O)N1CC(O)Cn1nc(-c2cccs2)oc1=O (centres undefined) | 5.68%
92 | CC(C)CNC(=O)c1ccc(NC(=O)NC(C)c2ccccn2)cc1 (centres undefined) | -5.93%

Row | SMILES | cytotoxicity at 70.5 h
93 | COCCN1C(=O)CO[C@@H]2CN(S(=O)(=O)c3ccccc3)C[C@H]21 | 5.06%
94 | Cc1ccc(CN(CCCN2CCOCC2)Cc2cnc(C)n2C)o1 | 12.4%
95 | COc1ccc(F)cc1CN1CCCC(c2cc(C(N)=O)[nH]n2)C1 (centres undefined) | -10.6%
96 | Cc1nc(C)n(CC2CCCCN2Cc2cscn2)n1 (centres undefined) | -5.99%
97 | COc1ccc([C@@H]2CN(c3cc(OC)nc(N)n3)C[C@H]2N(C)C)cc1 | -3.33%
98 | CC(O)CN1CCN(C(=O)c2cnn(-c3ccccc3Cl)c2)CC1 (centres undefined) | -2.98%
99 | CC(C(N)=O)N(C)CCCc1cc(-c2ccc(F)cc2)n(C)n1 (centres undefined) | -9.74%
100 | CCC1(O)CCCN(c2nc(-c3ccccn3)nc3c2c(C)nn3C)C1 (centres undefined) | -2.92%
101 | c1cnc(-c2cnc(N3CCSCC3)nc2C2CCCO2)cn1 (centres undefined) | -16.8%
102 | CSCCCNc1nccc(-c2cc(C(=O)O)ccn2)n1 | -7.43%
103 | Cc1ccc(CN2Cc3nnn(C)c3C(COCc3ccccc3)C2)o1 (centres undefined) | -8.1%
104 | O=S1(=O)N(c2ccccc2)C[C@H](O)[C@]12CCNC2 | -2.92%
105 | COCC1c2c(cnn2CC2CCOCC2)CCN1Cc1ccoc1 (centres undefined) | 3.09%
106 | CC(=O)N1CCCCC1c1nc2c(c(NC3CCCC3)n1)CN(C)CC2 (centres undefined) | 17%
107 | CCCn1ccnc1-c1cccc(NC2CCOC2)c1 (centres undefined) | -1.36%
108 | CCNc1nc(C)c(C(=O)N2CCN(c3ncccc3C)CC2)s1 | -4.75%
109 | O=C(NCCCO)c1cc(-c2cc[nH]n2)n2ccccc12 | -102%
110 | Cc1ccc(C)c(-n2ncc(NC(=O)NC3(C)CCOC3)c2C)c1 (centres undefined) | 14.4%
111 | c1ccc(Cc2noc(CCNC3CCOC4(CCOCC4)C3)n2)cc1 (centres undefined) | 11.9%
112 | CC(C)CCC1=NC2(CCN(C(=O)CN3CCCC3=O)CC2)C(=O)N1 | -5.52%
113 | c1ccc(CN2CCCC[C@H]3CN(c4ncccn4)C[C@H]32)cc1 | -6.75%
114 | O=C(NCCCN1CCCC1=O)c1nc(-c2ccc3cc[nH]c3c2)no1 | -22.5%
